Results as given in article PMC8125507, “Molecular Mechanism of Thymidylate Synthase Inhibition by N^4-Hydroxy-dCMP in View of Spectrophotometric and Crystallographic Studies” (International Journal of Molecular Sciences, 2021).

Key:
Type in all cases: binding
mTS = target: T1, mTS (Mus musculus, UniProt P07607); experiment: X-ray crystal structure, co-crystal soaked with meTHF, […] Å; settings: pH 6.7; folate derivative also bound; active site of both subunits, non-covalent
T1 construct: gene Tyms; recombinant, non-phosphorylated fraction for crystals; dimer; catalytic Cys189; residues 21-307 modelled
T1 sequence (P07607 whole entry, the tested form may be a part): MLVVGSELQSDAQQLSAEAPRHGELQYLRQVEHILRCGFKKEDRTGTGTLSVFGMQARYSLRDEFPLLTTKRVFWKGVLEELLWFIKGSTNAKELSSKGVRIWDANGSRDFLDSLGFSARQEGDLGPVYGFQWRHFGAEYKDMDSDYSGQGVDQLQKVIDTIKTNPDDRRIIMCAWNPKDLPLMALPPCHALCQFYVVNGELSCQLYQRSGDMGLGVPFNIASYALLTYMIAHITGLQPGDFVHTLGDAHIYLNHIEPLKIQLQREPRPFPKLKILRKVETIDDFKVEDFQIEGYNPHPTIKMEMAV

TspTS = target: T2, TspTS (Trichinella spiralis, UniProt Q9NDD3); experiment: X-ray crystal structure, co-crystal, […] Å; settings: co-crystallized with meTHF, pH 7.1; covalent to Cys189 Sγ via pyrimidine C(6); bound form reduced at C(5); no folate seen
T2 construct: gene ts; recombinant, non-phosphorylated fraction; dimer; catalytic Cys189; residues 18-307 modelled in part
T2 sequence (Q9NDD3 entry or part of it): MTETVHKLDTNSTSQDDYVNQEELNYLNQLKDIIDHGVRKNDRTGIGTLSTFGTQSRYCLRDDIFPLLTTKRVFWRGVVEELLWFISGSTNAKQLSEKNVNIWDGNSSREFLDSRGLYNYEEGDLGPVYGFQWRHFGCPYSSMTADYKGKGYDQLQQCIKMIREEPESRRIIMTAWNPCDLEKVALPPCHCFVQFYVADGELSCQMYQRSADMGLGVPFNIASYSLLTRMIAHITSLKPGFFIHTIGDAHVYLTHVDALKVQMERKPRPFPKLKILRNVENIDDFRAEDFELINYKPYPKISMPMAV

CeTS = target: T3, CeTS (Caenorhabditis elegans, UniProt Q9Y052); experiment: X-ray crystal structure, soaked crystal, […] Å; settings: apoenzyme crystal soaked with 36 mM ligand ca. 80 min, pH 5.6; no folate; active site of both subunits, non-covalent
T3 construct: recombinant, non-phosphorylated fraction; dimer; catalytic Cys197; residues 24-312 modelled
T3 sequence (Q9Y052 entry or part of it): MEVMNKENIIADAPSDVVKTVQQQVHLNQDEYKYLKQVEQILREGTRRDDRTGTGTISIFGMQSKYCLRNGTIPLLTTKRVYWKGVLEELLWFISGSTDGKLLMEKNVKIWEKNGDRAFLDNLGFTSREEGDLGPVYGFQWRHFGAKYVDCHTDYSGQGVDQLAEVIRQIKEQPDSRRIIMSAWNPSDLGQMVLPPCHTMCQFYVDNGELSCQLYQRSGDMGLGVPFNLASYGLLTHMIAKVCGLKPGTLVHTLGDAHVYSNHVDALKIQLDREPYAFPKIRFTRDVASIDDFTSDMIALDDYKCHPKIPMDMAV

## O=c1nc(NO)ccn1[C@H]1C[C@H](O)[C@@H](COP(=O)(O)O)O1 [N^4-OH-dCMP, N^4-hydroxy-2′-deoxycytidine 5′-monophosphate]
mTS
  X-ray crystal structure, co-crystal soaked with meTHF, 2.13 Å: N^4-OH-dCMP molecules are modeled with full occupancy
TspTS
  X-ray crystal structure, co-crystal, 1.18 Å: a clear electron density was present, identified as the N^4-OH-dCMP molecule
CeTS
  X-ray crystal structure, soaked crystal, 2.8 Å: with N^4-OH-dCMP molecules in both active sites refined with full occupancy
